Assays:
[1] = biological target: T1, Muscarinic acetylcholine receptor M1 (Homo sapiens, UniProt P11229); type: functional, cell-based
T1 sequence (P11229 whole entry): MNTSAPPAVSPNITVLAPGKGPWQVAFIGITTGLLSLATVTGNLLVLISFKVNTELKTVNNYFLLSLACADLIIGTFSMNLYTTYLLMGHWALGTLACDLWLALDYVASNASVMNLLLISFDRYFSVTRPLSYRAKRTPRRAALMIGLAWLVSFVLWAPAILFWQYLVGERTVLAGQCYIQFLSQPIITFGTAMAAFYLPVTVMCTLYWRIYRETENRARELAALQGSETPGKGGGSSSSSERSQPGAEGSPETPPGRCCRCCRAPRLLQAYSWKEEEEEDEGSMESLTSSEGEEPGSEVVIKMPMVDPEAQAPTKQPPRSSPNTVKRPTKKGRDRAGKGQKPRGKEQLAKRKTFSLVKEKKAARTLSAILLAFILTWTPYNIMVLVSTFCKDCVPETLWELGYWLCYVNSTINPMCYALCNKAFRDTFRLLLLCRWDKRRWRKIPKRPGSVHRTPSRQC

[2] = biological target: T2, Progesterone receptor (Homo sapiens, UniProt P06401)
T2 sequence (P06401 whole entry): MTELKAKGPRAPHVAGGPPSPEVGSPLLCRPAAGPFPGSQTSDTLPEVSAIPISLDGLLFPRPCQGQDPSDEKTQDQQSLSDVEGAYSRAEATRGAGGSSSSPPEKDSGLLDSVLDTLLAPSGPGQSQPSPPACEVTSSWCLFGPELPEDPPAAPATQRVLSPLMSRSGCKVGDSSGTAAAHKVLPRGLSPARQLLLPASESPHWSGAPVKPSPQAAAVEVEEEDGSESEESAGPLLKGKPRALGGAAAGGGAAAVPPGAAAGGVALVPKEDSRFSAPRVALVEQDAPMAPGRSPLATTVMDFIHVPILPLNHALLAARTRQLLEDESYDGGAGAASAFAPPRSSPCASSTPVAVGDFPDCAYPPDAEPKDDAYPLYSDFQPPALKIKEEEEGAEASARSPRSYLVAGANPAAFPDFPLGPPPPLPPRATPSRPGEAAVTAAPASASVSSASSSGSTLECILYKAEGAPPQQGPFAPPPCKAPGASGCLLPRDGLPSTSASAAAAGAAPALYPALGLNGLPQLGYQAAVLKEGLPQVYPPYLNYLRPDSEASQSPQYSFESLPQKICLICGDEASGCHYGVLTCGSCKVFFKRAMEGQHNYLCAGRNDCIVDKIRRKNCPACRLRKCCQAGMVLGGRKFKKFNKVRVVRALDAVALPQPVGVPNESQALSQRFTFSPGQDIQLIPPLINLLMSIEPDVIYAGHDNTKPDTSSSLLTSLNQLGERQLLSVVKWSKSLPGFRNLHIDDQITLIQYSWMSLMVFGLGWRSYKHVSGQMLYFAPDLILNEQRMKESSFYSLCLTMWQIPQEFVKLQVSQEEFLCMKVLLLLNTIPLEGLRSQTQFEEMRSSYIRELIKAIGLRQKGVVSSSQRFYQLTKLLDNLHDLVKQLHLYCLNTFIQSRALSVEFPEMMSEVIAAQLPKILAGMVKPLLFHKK

[3] = biological target: T3, Estrogen receptor (Homo sapiens, UniProt P03372)
T3 sequence (P03372 whole entry): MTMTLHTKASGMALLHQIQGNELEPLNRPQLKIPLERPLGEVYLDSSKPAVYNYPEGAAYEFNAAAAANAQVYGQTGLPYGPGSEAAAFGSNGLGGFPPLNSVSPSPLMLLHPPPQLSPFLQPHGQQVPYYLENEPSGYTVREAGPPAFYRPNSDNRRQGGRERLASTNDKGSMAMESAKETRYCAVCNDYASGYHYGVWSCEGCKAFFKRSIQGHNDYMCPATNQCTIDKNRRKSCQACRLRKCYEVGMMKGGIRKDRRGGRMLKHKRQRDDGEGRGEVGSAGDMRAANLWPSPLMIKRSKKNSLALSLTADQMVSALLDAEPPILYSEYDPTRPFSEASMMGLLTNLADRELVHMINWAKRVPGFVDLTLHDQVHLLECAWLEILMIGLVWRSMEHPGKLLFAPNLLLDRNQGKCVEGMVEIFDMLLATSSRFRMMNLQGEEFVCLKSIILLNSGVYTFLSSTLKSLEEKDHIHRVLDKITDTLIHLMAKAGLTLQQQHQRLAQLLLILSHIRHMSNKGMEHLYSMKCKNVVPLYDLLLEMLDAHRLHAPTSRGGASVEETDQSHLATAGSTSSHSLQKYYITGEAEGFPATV

[4] = biological target: Cannabinoid receptor 1 (Homo sapiens, UniProt P21554); type: functional, cell-based
[5] = biological target: Beta-2 adrenergic receptor (Homo sapiens, UniProt P07550); type: functional, cell-based
[6] = biological target: Mu-type opioid receptor (Homo sapiens, UniProt P35372); experiment: biochemical; type: functional
[7] = biological target: 5-hydroxytryptamine receptor 2B (Homo sapiens, UniProt P41595); type: functional, cell-based
Also: assay procedure not described here.

Mu-type opioid receptor, sequence (P35372 whole entry): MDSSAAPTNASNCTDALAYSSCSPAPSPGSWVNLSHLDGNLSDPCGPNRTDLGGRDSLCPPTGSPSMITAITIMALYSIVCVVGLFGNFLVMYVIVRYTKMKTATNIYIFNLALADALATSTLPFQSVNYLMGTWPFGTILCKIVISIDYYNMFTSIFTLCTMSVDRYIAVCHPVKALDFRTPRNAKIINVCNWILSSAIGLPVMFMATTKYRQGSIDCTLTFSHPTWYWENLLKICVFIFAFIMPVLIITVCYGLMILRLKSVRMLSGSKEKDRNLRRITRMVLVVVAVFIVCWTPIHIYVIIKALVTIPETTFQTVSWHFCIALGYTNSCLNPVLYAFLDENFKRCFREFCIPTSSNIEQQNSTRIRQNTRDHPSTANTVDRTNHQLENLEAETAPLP
5-hydroxytryptamine receptor 2B, sequence (P41595 whole entry): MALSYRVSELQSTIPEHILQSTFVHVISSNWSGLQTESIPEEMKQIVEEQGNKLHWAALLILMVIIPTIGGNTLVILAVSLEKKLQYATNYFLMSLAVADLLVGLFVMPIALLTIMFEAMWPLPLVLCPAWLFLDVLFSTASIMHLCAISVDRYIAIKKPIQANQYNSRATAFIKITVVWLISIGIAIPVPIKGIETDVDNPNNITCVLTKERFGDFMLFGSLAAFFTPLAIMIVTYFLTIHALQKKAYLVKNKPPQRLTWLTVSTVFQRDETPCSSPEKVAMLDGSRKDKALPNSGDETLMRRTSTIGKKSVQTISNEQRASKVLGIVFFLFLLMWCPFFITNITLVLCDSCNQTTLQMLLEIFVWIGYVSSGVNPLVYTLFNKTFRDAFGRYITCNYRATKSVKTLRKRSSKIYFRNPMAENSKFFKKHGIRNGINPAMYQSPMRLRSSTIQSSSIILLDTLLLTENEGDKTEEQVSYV
Cannabinoid receptor 1, sequence (P21554 whole entry): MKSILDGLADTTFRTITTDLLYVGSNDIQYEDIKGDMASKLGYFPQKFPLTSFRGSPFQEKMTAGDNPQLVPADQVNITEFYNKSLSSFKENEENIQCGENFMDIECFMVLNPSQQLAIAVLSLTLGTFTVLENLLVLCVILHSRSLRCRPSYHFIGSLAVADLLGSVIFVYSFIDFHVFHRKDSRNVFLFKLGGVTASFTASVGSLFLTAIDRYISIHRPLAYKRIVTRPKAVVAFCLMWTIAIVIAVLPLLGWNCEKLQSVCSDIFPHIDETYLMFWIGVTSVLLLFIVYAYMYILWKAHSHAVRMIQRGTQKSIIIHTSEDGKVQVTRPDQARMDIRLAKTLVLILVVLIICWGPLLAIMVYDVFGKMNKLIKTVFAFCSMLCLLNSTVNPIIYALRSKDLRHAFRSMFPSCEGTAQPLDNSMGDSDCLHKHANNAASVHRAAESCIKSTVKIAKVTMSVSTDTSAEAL
Beta-2 adrenergic receptor, sequence (P07550 whole entry): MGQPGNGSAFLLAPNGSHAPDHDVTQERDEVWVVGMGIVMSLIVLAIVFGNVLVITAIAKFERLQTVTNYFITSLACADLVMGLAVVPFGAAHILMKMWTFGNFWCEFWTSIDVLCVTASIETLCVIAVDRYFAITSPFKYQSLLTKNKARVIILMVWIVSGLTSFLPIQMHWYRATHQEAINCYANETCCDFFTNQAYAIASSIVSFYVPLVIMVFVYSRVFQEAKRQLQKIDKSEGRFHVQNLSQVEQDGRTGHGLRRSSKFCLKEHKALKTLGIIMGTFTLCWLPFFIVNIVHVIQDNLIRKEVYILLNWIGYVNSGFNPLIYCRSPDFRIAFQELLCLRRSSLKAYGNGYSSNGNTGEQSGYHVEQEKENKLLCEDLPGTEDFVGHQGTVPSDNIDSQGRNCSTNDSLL

For CC(N)Cc1ccc(O)cc1 (centres undefined) [HYDROXYAMPHETAMINE], the AC50 [1] was over 30 µM, the AC50 [2] was over 30 µM and the AC50 [3] was over 30 µM.
With CCOC(=O)[C@H](CCc1ccccc1)N[C@@H](C)C(=O)N(CC(=O)O)C1Cc2ccccc2C1 the AC50 [1] was over 30 µM, the AC50 [2] was over 30 µM and the AC50 [3] was over 30 µM.
CCOC(=O)N1CSC[C@H]1C(=O)O [TELMESTEINE] gave an AC50 [1] of over 30 µM, an AC50 [2] of over 30 µM and an AC50 [3] of over 30 µM.
For CC(C)N(CCNC(=O)CN1CCCC1=O)C(C)C, the AC50 [1] was over 30 µM, the AC50 [2] was over 30 µM and the AC50 [3] was over 30 µM.
CN1C(=O)/C(=N\NC(N)=S)c2ccccc21 [METHISAZONE] was tested, and the AC50 [1] was over 3 µM, the AC50 [2] was over 30 µM and the AC50 [3] was over 30 µM.
c1ccc2c(c1)CCc1ccccc1N2C1CN2CCC1CC2 (centres undefined) [QUINUPRAMINE] was tested, and the AC50 [1] was 0.0076 µM, the AC50 [2] was over 30 µM and the AC50 [3] was over 30 µM.
Work on CC1=CCC(C(C)(C)O)CC1O (centres undefined) [SOBREROL] yielded an AC50 [1] of over 30 µM, an AC50 [2] of over 30 µM and an AC50 [3] of over 30 µM.
With Cc1cc(N)c2ccccc2[n+]1CCCCCCCCCC[n+]1c(C)cc(N)c2ccccc21 the AC50 [1] was 0.611 µM, the AC50 [2] was 16 µM and the AC50 [3] was 20.8 µM.
With COc1cc2c(cc1OC)CC(=O)N(CCCN(C)C[C@H]1Cc3cc(OC)c(OC)cc31)CC2 [IVABRADINE] the AC50 [1] was over 30 µM, the AC50 [2] was over 30 µM and the AC50 [3] was over 30 µM.
CCCc1nc(C(C)(C)O)c(C(=O)O)n1Cc1ccc(-c2ccccc2-c2nnn[nH]2)cc1 [OLMESARTAN] showed an AC50 [1] of over 30 µM, an AC50 [2] of over 30 µM and an AC50 [3] of over 30 µM.
With Cc1ncc(COP(=O)(O)O)c(C=O)c1O [PYRIDOXAL PHOSPHATE ANHYDROUS] the AC50 [1] was over 30 µM, the AC50 [2] was over 30 µM and the AC50 [3] was 10.3 µM.
Work on CN(C)CCOC(c1ccccc1)c1ccc(Br)cc1 (centres undefined) [BROMODIPHENHYDRAMINE] yielded an AC50 [1] of 1.49 µM, an AC50 [2] of over 30 µM and an AC50 [3] of over 30 µM.
COc1cc(N2CCC(N3CCN(C)CC3)CC2)ccc1Nc1ncc(Cl)c(Nc2ccccc2P(C)(C)=O)n1 [BRIGATINIB] gave an AC50 [1] of over 30 µM, an AC50 [2] of over 30 µM and an AC50 [3] of over 30 µM.
Work on CCC(=O)O[C@]1(C(=O)SCF)[C@H](C)C[C@H]2[C@@H]3C[C@H](F)C4=CC(=O)C=C[C@]4(C)[C@@]3(F)[C@@H](O)C[C@@]21C [FLUTICASONE PROPIONATE] yielded an AC50 [4] of over 30 µM, an AC50 [1] of over 30 µM and an AC50 [5] of over 30 µM. For the same compound, the AC50 [6] was over 30 µM and the AC50 [7] was over 30 µM.
